Like-named read-outs stand apart in the source and are kept apart here.
Experiments:
5-HT1A receptor = biological target: T1, 5-HT1A receptor (Rattus norvegicus, UniProt P19327); assay: Procedure (A): displacement of [^3 H]-8-OH-DPAT from the 5-HT1A receptor in rat hippocampal membranes; type: binding; conditions: [^3 H]-8-OH-DPAT displacement, read-out: IC50 value according to procedure (A)
T1 construct: 5-HT1A receptor in rat hippocampal membranes; from tissue; host or cells: rat hippocampal membranes
T1 sequence (P19327 1-422): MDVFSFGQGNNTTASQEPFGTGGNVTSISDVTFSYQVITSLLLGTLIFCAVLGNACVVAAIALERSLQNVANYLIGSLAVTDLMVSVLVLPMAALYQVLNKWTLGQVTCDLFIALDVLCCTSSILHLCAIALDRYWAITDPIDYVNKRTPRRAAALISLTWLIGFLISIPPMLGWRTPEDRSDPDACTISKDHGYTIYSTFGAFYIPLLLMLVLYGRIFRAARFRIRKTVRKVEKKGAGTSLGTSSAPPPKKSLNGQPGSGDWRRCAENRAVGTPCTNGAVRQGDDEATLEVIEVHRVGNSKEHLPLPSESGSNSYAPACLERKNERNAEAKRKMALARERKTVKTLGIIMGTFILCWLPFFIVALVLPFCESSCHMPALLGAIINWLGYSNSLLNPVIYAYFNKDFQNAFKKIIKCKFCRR

D2 = D2 (Homo sapiens, UniProt P14416); assay: Procedure (B): affinity for D2 receptor sites; type: binding; conditions: for inhibition at 1 µM: 10^-6 M, read-out: % inhibition of binding at D2
Procedure: The affinity of the compounds for D2 receptor sites is determined by the procedure of P. Seeman et al. J. Neurochem. 1984, 43, 221-235.

5-HT2A = biological target: T2, 5-HT2A (Rattus norvegicus, UniProt P14842); assay: Procedure (B): affinity for 5-HT2A sites; type: binding; conditions: for inhibition at 1 µM: 10^-6 M, read-out: % inhibition of binding at 5-HT2A
T2 construct: from tissue
Procedure: The affinity of the compound for 5-HT2A sites is determined by the procedure of R. A. Lyon et al. Mol. Pharmacol., 1987, 31, 194-199. (The 5-HT2A site was previously known as the 5-HT2 site).
(§1) Preferably the compound should be 50 fold selective.

5-HT1B = biological target: T3, 5-HT1B (Rattus norvegicus, UniProt P28564); assay: Procedure (B): affinity for 5-HT1B sites; conditions: 10^-6 M; read-out: % inhibition of binding at 5-HT1B
T3 construct: from tissue
Procedure: (§2) In addition to showing selectivity over the D2, α1 and 5-HT2A sites it is also preferable that the compound is 25 fold selective (preferably 50 fold selective) over one or more of the 5-HT1B, 5-HT2C, 5-HT1D, 5-HT3, α2, β and D1 sites. The affinity for these sites is determined by the following procedures.
5-HT1B : B. J. Alexander et al., Br. J. Pharmac., 1986, 87, P 22.

α2 = biological target: T4, α2 (Rattus norvegicus, UniProt P22909); assay: Procedure (B): affinity for α2 sites; conditions: 10^-6 M; read-out: % inhibition of binding at α2
T4 construct: from tissue
T4 sequence (P22909 1-465): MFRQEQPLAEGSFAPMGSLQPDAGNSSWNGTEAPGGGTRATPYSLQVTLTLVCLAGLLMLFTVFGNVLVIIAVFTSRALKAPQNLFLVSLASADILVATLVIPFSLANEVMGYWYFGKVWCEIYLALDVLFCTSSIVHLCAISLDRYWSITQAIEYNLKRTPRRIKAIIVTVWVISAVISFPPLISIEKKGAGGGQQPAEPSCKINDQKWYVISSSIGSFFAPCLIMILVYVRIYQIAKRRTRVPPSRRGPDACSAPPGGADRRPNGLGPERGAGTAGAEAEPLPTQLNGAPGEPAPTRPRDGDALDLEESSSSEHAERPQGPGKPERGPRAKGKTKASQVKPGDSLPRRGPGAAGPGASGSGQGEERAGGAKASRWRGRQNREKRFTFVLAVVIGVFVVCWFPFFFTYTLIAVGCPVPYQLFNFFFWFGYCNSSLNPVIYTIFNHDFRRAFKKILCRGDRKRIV
Procedure: The affinity for these sites is determined by the following procedures. α2 : D. J. Loftus et al. Life Sciences, 1984, 34, 61-69.

D1 = biological target: T5, D1 (Rattus norvegicus, UniProt P18901); assay: Procedure (B): affinity for D1 sites; conditions: 10^-6 M; read-out: % inhibition of binding at D1
T5 construct: from tissue
Procedure: The affinity for these sites is determined by the following procedures. D1 : V Billard et al. Life Sciences. 1984, 35, 1885-1893.

α1 = assay: Procedure (B): affinity for α1 sites; type: binding
Procedure: The affinity of the compound for al sites is determined by the procedure of A. L. Morrow, et al. Mol. Pharmacol. 1986, 29, 321.
as §1

5-HT2C = assay: Procedure (B): affinity for 5-HT2C (previously 5-HT1C) sites; type: binding; conditions: 10^-6 M
Procedure: as §2
5-HT2C : B. J. Alexander et al., Br. J. Pharmac., 1986, 87, P 22. (The 5-HT2C site was previously known as the 5-HT1C site).

5-HT1D = assay: Procedure (B): affinity for 5-HT1D sites; type: binding
Procedure: The affinity for these sites is determined by the following procedures. […] C. Waeber et al., Naunyn-Schmniedebergs Arch. Pharmacol. 1988, 337, 595-601.

β = assay: Procedure (B): affinity for β sites; type: binding; conditions: 10^-6 M
Procedure: The affinity for these sites is determined by the following procedures. β: L. T. Williams and R. J. Lefkowitz (1987) Receptor binding studies in adrenergic pharmacology, Raven Press, New York.

[1] = biological target: T6, presynaptic 5-HT1A receptors (Rattus norvegicus, UniProt P19327); assay: Procedure (C)(b): 5-HT release in the hippocampus using in vivo microdialysis; conditions: 1 mg/kg s.c.
T6 construct: 5-HT release in the hippocampus using in vivo microdialysis; from tissue; host or cells: brain of the living animal
T6 sequence (P19327 1-422): T1 sequence (P19327 1-422)
Excerpt: (§3) The activation of presynaptic 5-HT1A receptors results in the inhibition of serotonin neurones which can be quantified in two ways:
Routledge, J. Gurling, I. K. Wright and C.

5-HT1A binding site [2] = biological target: T7, 5-HT1A binding site (Rattus norvegicus, UniProt P19327); assay: biochemical
T7 sequence (P19327 1-422): T1 sequence (P19327 1-422)

[3] = biological target: T6, presynaptic 5-HT1A receptors; assay: Procedure (C)(a): electrophysiological monitoring of firing rate of serotonin neurones; type: in vivo; conditions: iv, read-out: ID50 (neuronal firing rate)
Procedure: as §3
(a) Electrophysiologically monitoring the activity of the neurones to measure their firing rate by the method of H. J. Haigler and G. K. Aghajanian, J. Pharmacol. Exp. Therap., 1974, 188, 688. An intravenous ID50 dose is determined. The agonist.

5-HT1A binding site [4] = biological target: T7, 5-HT1A binding site
[5] = concentration of 10 MM (so in the source)
[6] = concentration not clearly stated ("as were")

Sequence of D2 (P14416 whole entry): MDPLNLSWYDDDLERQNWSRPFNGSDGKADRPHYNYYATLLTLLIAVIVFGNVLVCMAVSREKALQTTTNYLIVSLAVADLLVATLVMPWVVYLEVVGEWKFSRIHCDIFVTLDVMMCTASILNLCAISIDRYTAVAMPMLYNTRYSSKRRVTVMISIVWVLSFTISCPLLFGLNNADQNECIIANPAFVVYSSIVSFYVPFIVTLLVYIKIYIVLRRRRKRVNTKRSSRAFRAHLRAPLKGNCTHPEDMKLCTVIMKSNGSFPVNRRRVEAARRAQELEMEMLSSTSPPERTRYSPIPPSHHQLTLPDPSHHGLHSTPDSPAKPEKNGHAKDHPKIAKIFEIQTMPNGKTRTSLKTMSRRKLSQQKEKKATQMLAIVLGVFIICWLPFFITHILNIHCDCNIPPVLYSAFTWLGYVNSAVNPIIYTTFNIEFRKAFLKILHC
T5 sequence (P18901 whole entry): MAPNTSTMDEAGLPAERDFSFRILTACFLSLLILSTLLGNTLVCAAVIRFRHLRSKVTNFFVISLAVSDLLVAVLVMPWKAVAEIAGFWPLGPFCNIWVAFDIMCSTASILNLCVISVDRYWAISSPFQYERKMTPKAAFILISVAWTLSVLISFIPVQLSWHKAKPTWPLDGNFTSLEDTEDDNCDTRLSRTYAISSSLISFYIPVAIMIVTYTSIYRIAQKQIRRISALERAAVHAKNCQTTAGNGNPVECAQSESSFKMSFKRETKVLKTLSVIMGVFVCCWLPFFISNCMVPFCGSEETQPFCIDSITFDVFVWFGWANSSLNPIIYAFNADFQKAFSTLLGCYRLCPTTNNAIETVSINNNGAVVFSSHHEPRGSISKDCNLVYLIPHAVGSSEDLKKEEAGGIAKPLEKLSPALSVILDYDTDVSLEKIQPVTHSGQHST
T3 sequence (P28564 whole entry): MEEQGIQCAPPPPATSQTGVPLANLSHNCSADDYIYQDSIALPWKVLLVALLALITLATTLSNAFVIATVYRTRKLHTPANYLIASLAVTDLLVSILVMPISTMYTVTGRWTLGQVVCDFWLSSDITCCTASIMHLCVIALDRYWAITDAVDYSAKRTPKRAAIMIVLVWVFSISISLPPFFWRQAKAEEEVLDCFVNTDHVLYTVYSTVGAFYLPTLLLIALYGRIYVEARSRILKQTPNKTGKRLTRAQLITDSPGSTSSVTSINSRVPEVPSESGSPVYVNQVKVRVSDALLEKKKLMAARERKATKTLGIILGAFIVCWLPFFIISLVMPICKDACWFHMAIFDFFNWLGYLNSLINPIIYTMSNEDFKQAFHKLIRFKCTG
T2 sequence (P14842 whole entry): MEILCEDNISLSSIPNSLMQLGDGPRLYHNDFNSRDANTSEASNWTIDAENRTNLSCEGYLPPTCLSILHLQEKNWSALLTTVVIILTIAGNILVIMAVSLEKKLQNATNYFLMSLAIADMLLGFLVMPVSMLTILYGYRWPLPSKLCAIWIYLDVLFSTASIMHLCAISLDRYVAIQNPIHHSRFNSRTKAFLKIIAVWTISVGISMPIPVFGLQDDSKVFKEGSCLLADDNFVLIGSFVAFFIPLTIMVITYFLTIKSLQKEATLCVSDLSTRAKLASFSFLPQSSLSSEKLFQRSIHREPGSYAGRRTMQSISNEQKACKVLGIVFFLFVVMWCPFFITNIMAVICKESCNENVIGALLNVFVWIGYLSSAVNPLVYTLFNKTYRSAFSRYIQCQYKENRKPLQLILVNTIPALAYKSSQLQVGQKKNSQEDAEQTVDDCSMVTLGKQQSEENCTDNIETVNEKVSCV

COc1ccccc1N1CCN(CC(C(=O)NC(C)(C)C)c2ccccc2)CC1 (racemic) [racemate, N-tert-butyl-3-[4-(2-methoxyphenyl)piperazinyl]-2-phenylpropanamide]
IC50 (5-HT1A receptor): 34 nM | inhibition at 1 µM (D2): 14% | inhibition at 1 µM (5-HT2A): 37% | inhibition at 1 µM (5-HT1B): 27% | inhibition at 1 µM (α2): 10% | inhibition at 1 µM (D1): 20%

COc1ccccc1N1CCN(CC(C(=O)NC(C)(C)C)c2ccccc2)CC1 (single isomer, unassigned; (+)) [(+)-enantiomer, N-tert-butyl-3-[4-(2-methoxyphenyl)piperazinyl]-2-phenylpropanamide]
IC50 (5-HT1A receptor): 15.5 nM | inhibition at 1 µM (D2): 20% | inhibition at 1 µM (5-HT2A): 61% | inhibition at 1 µM (5-HT1B): 22% | inhibition at 1 µM (α2): 11% | inhibition at 1 µM (D1): 22%

COc1ccccc1N1CCN(CC[C@@H](C(=O)N2CCCCCC2)c2ccccc2)CC1 [(c)]
IC50 (5-HT1A receptor): 0.3 nM | IC50 (D2; procedure (B)): 277 nM | IC50 (α1): 53 nM | IC50 (5-HT2A; procedure (B)): 106 nM | inhibition at 1 µM (5-HT1B): < 50% | % inhibition of binding at 5-HT2C (5-HT1C) (5-HT2C): < 50% | IC50 (5-HT1D; procedure (B)): 2240 nM | inhibition at 1 µM (α2): 53% | % inhibition of binding at β (β): < 50% | inhibition at 1 µM (D1): < 50% | effect of pretreatment on 8-OH-DPAT-induced decrease in 5-HT release [1]: completely blocked the 8-OH-DPAT-induced decrease in 5-HT release | effect on 5-HT release / extracellular levels of 5-HT in the hippocampus [1]: no significant effect on extracellular levels of 5-HT in the hippocampus

NCCc1c[nH]c2ccc(C(N)=O)cc12 [Compound 5-CT]
IC50 (5-HT1A binding site [2]): 10 to 100 nM

CCCN(CCC)C1CCc2cccc(O)c2C1 (centres unmarked) [Compound 8-OH-DPAT]
ED50 [3]: 1.9 µg/kg

COc1ccccc1N1CCN(CCN(C(=O)C2CCCCC2)c2ccccn2)CC1 [Compound (a), N-(2-(1-(4-(2-methoxyphenyl)piperazinyl))ethyl)-N-(2-pyridinyl)cyclohexanecarboxamide]
inhibition at 1 µM (D2): < 50% | inhibition at 1 µM (5-HT2A): < 50% | inhibition at 1 µM (5-HT1B): < 50% | % inhibition of binding at 5-HT2C (5-HT1C) (5-HT2C): < 50% | % inhibition of binding at 5-HT1D (5-HT1D; 10^-6 M): < 50% | inhibition at 1 µM (α2): < 50% | % inhibition of binding at β (β): < 50% | inhibition at 1 µM (D1): < 50%

CNC[C@H](O)c1cccc(O)c1 [L-phenylephrine]
displacement of hippocampal [^3 H]WAY-100635 binding (5-HT1A binding site [4]; [5]): ineffective

COc1ccccc1N1CCN(CCCCN2C(=O)c3ccccc3C2=O)CC1 [NAN 190]
IC50 (5-HT1A binding site [2]): 10 to 100 nM

COC(=O)c1cc2c(N3CCN(CCCCN4C(=O)c5ccccc5S4(=O)=O)CC3)cccc2[nH]1 [SDZ-216525]
IC50 (5-HT1A binding site [2]): 5 nM

O=C1CN=C(c2ccccc2Cl)c2cc([N+](=O)[O-])ccc2N1 [clonazepam]
displacement of hippocampal [^3 H]WAY-100635 binding (5-HT1A binding site [4]; [6]): ineffective

NCCc1ccc(O)c(O)c1 [dopamine]
displacement of hippocampal [^3 H]WAY-100635 binding (5-HT1A binding site [4]; [5]): ineffective

COCCCC/C(=N\OCCN)c1ccc(C(F)(F)F)cc1 [fluvoxarnine]
activity against [^3 H]WAY-100635 binding (5-HT1A binding site [4]; micromolar concentrations): inactive

CN(C)CCCN1c2ccccc2CCc2ccccc21 [imipramine]
displacement of hippocampal [^3 H]WAY-100635 binding (5-HT1A binding site [4]; [6]): ineffective

CC(C)NCC(O)c1ccc(O)c(O)c1 (centres unmarked) [isoprenaline]
displacement of hippocampal [^3 H]WAY-100635 binding (5-HT1A binding site [4]; [5]): ineffective

CSc1ccc2c(c1)C(N1CCN(C)CC1)Cc1ccccc1S2 (centres unmarked) [methiothepin]
IC50 (5-HT1A binding site [2]): 10 to 100 nM

NC[C@H](O)c1ccc(O)c(O)c1 [noradrenaline]
displacement of hippocampal [^3 H]WAY-100635 binding (5-HT1A binding site [4]; [5]): ineffective

Reference: US6056942A, “5-HT1A ligands” (John Wyeth & Brother, Ltd., priority 1993, dated 2000)
